Molecules are shown by their SMILES.

The nature of this data set: ABC-008 clinical study (NUC-1031 in combination with cisplatin), plasma pharmacokinetics. The format is in vivo, human. The procedure: Initial pharmacokinetic analysis was conducted on samples obtained from the first three patients on the ABC-008 clinical study.
Patient 1: —Metastatic Biliary Tract Carcinoma—Starting dose: 625 mg/m^2 (S)-NUC-1031+25 mg/m^2 cisplatin
Patient 2: —Metastatic Biliary Tract Carcinoma—Starting dose: 625 mg/m^2 (S)-NUC-1031+25 mg/m^2 cisplatin
Patient 3: —Metastatic Biliary Tract Carcinoma—Starting dose: 625 mg/m^2 (S)-NUC-1031+25 mg/m^2 cisplatin
Both NUC-1031 and cisplatin were administered on days 1 and 8 of a 21 day cycle.
An appropriate dosage of 625 mg/m^2 of NUC-1031 was prepared in a Luerlock syringe. The dosage given was based on the subject's height and weight using a standard body surface area (BSA) calculation. A polyethylene extension line was primed with up to 1.5 ml of Flushing Solution, prior to connecting the syringe containing NUC-1031 to the extension line.
The extension line was connected to the patient's Central Venous Access Device (CVAD), and NUC-1031 was injected at a rate of 20 ml/hour using a syringe pump.
Once the injection was complete the NUC-1031 syringe was disconnected from the extension line, and the extension line was then flushed with an additional volume of up to 3 ml of Flushing solution.

The mark [1] stands for this setting: ABC-008 (with cisplatin) compared to ProGem1 (single agent NUC-1031).

On to `C[C@H](NP(=O)(OC[C@H]1O[C@@H](n2ccc(N)nc2=O)C(F)(F)[C@H]1O)Oc1ccccc1)C(=O)OCc1ccccc1` (stereo partly drawn) [NUC-1031, 2′-Deoxy-2′,2′-difluoro-D-cytidine-5′-O-[phenyl (benzoxy-L-alaninyl)] phosphate], for which, under setting [1], the “AUC increase, NUC-1031 plasma” value was 2.1 fold and the “Cmax increase, NUC-1031 plasma” value was found to be 1.9 fold. In addition, the “increase in half-life, NUC-1031 plasma PK parameters” value (ABC-008 (with cisplatin) compared to single agent NUC-1031) worked out at 3.6 fold.

(Values after US20190022117A1, “COMBINATION THERAPY” (NuCana plc, priority 2015, published 2019).)
